Measurements reported in PMC11212260, “Next-generation neuropeptide Y receptor small-molecule agonists inhibit mosquito-biting behavior” (Parasites & Vectors, 2024).
Where “and” joins values, the source holds several entries; their conditions need not be identical. Equal values may be shown once. Read-outs that look alike come from different tables or passages of the source.

What was measured:
Ae. aegypti NPYLR7 = Ae. aegypti NPYLR7 (Aedes aegypti, UniProt U5N1H5); test: In vitro calcium (GCaMP6s) FLIPR assay in HEK293T cells transfected with NPYLR7; type: cell-based; details: for RFU: assay date 1/11/20 plate 1, duplicate wells, listed as TDI-012631-CL-1; for in vitro potency (in words): relative to reference compound TDI-012631
Ae. aegypti NPYLR7, sequence (U5N1H5 entry or part of it): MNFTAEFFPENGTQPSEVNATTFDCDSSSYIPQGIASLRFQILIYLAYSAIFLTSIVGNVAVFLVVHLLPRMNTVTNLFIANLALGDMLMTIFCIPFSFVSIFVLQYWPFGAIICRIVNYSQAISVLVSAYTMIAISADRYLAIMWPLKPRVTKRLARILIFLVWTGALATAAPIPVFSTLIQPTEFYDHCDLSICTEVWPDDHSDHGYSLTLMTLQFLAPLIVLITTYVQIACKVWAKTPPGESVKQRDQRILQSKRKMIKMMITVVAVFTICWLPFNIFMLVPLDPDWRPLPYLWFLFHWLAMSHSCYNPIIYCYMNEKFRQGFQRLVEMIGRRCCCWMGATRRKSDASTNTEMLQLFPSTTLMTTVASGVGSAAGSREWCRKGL
In short: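 HEK293T cells transiently co-transfected with GCaMP6s, mouse Gqα15 and NPYLR7; FLIPR imaging every second for 5 min, compound (0–100 μM) added after 30 s baseline in HBSS + 20 mM HEPES. Response normalized to buffer (0%) and 10 μM FMRFa3 (100%); relative EC50 by four-parameter fit, replicates averaged.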

[1] = system: Aedes aegypti (Orlando strain) females; test: Host-seeking screening assay (miniport olfactometer); type: in vivo; details: for Attraction (relative to saline): per-compound value of Fig. 3C; for effect on host-seeking (in words): fed at a dose of 1 μM
In short: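 Fasted Orlando-strain females fed saline meals (400 mM NaHCO3) with 1 mM ATP and test compound at 1 μM final via warmed membrane feeders; lethality counted 24 h post-meal. At 48 h, attraction to human-scented stocking plus 5% CO2 scored over 5 min, normalized to matched saline-fed controls.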

[2] = Figure 1E Summary, third list (n = 39), read-out: Reported Metric (Summary list)
[3] = relative EC50, percent effect relative to 10 μM FMRFa3, read-out: EC50
[4] = fed 1 μM in saline, tested 48 h post-meal
[5] = EC50 of the individual assay date/plate (assay date), read-out: EC50
[6] = summary EC50 per compound (mean over assay dates), the unit is taken from the neighbouring EC50 (uM) column, read-out: Reported Metric

COc1ccc2c(C)nc(NC(=N)N)nc2c1 [TDI-012631, reference compound]
RFU (Ae. aegypti NPYLR7; 0.00169350878084303uM): 71 RFU and 55 RFU | RFU (Ae. aegypti NPYLR7; 0.00508052634252909uM): 71 RFU and 78 RFU | RFU (Ae. aegypti NPYLR7; 0.0152415790275873uM): 77 RFU and 71 RFU | RFU (Ae. aegypti NPYLR7; 0.0457247370827618uM): 80 RFU and 73 RFU | RFU (Ae. aegypti NPYLR7; 0.137174211248285uM): 64 RFU and 79 RFU | RFU (Ae. aegypti NPYLR7; 0.411522633744856uM): 90 RFU and 78 RFU | RFU (Ae. aegypti NPYLR7; 3.7037037037037uM): 273 RFU and 186 RFU | RFU (Ae. aegypti NPYLR7; 11.1111111111111 uM): 265 RFU and 324 RFU | RFU (Ae. aegypti NPYLR7; 33.333333 uM): 286 RFU and 301 RFU | RFU (Ae. aegypti NPYLR7; 100 uM): 368 RFU and 331 RFU | EC50 (Ae. aegypti NPYLR7; [2]): 4.11 µM | EC50 (Ae. aegypti NPYLR7; Figure 1E, EC50 of the single assay date/plate, read-out: EC50): 2.75 µM and 1.61 µM and 2.58 µM and 3.45 µM and 2.36 µM and 11.5 µM and 2.22 µM and 6.4 µM | EC50 (Ae. aegypti NPYLR7; Figure 1E, metric reported per compound, repeated on every replicate line, read-out: Reported Metric (EC50)): 4.11 µM | response at 0.0051(uM) (Ae. aegypti NPYLR7; compound 0.0051 uM, single replicate well): -0.02145 | response at 0.0152(uM) (Ae. aegypti NPYLR7; compound 0.0152 uM, single replicate well): 3.235 | response at 0.4115(uM) (Ae. aegypti NPYLR7; compound 0.4115 uM, single replicate well): -1.786 | EC50 (Ae. aegypti NPYLR7; [3]): 4.11 µM | EC50 (Ae. aegypti NPYLR7; sheet Figure 3C, unit inferred, read-out: EC50): 4.11 µM | Host-seeking relative to saline (test compound % host-seeking/average matched saline % host-seeking) ([1]; fed 1 μM in saline, tested 48 h post-meal, individual replicates, listed as TDI-02631): 1.06 and 1 | Attraction (relative to saline) [1, 4]: 0.99 | effect on host-seeking (in words) [1]: not active

CNc1nc(NC(=N)N)nc2cc(OCc3ccccc3)c(OC)cc12 [TDI-014184]
EC50 (Ae. aegypti NPYLR7; [5]): 0.49 µM | EC50 (Ae. aegypti NPYLR7; [2]): 0.49 µM | activation at 0.0457 µM (Ae. aegypti NPYLR7; HEK-293T, 0.0457 uM, single replicate, normalised response): 8.6% | activation at 11.1111 µM (Ae. aegypti NPYLR7; HEK-293T, 11.1111 uM, single replicate, normalised response): 91.4% | EC50 (Ae. aegypti NPYLR7; [3]): 0.49 µM | in vitro potency (in words) (Ae. aegypti NPYLR7): significantly improved in vitro potency | EC50 (Ae. aegypti NPYLR7; [6]): 0.49 µM | Attraction (relative to saline) [1, 4]: 0.6

Cc1nc(NC(=N)N)nc2cc(N3CCc4ccccc4C3)ccc12 [TDI-014186]
EC50 (Ae. aegypti NPYLR7; [5]): 35.5 µM | EC50 (Ae. aegypti NPYLR7; Figure 1E Summary, second list (n = 48), read-out: Reported Metric (Summary list)): 35.5 µM | EC50 (Ae. aegypti NPYLR7; [3]): 35.5 µM | in vitro potency (in words) (Ae. aegypti NPYLR7): lower in vitro potency | EC50 (Ae. aegypti NPYLR7; [6]): 35.5 µM | Attraction (relative to saline) [1, 4]: 0.685 | effect on host-seeking (in words) [1]: reduced host-seeking behavior
